Holding throughout (test): biochemical
Holding throughout (design): In vitro kinase panel profiling, per cent remaining kinase activity at 10 uM

Experiment [1] has as its target T1, ASK1(h) (Homo sapiens, UniProt Q99683).
T1 construct: gene MAP3K5
T1 sequence (Q99683 1-1374): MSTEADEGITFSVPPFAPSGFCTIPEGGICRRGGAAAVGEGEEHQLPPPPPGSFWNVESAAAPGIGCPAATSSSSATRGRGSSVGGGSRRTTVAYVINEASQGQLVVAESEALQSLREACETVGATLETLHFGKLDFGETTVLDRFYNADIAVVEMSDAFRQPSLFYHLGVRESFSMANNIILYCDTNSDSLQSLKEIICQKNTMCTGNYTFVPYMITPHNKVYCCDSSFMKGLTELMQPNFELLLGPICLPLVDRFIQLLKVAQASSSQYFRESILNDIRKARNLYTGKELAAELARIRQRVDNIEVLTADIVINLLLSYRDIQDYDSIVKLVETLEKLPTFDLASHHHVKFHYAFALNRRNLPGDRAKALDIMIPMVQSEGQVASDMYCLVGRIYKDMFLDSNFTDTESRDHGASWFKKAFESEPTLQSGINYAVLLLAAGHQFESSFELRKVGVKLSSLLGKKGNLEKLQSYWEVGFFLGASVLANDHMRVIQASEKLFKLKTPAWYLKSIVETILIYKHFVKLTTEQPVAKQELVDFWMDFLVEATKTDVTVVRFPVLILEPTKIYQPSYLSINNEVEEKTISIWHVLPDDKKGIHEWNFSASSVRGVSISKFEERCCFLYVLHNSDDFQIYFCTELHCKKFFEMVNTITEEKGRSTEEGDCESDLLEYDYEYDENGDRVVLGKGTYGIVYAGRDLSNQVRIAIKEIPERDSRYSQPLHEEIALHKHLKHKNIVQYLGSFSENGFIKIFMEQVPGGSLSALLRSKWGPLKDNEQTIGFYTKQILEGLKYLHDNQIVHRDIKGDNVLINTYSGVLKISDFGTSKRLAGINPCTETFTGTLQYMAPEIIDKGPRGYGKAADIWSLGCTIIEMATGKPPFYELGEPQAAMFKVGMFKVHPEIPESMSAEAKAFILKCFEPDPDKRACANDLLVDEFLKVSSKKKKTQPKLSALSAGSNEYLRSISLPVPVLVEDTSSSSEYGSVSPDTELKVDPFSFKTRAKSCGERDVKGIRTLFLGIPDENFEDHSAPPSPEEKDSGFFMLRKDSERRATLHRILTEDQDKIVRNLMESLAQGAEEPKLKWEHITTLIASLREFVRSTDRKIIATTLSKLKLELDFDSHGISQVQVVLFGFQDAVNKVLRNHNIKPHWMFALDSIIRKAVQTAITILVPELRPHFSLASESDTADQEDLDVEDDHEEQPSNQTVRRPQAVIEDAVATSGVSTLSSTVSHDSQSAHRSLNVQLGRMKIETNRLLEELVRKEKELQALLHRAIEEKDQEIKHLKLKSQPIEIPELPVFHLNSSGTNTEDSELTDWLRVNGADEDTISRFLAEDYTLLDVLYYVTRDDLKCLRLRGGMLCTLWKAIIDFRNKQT
The settings on record: atp_concentration=200, read-out: % of control remaining. An excerpt: (§1) We derisk potential for off-target activity by profiling the compound in a CEREP panel, a standard secondary pharmacology assessment, as well as a kinase panel to derisk a potential hinge-binding motif in our leads, and a PARP panel to derisk activity against human […]. Reassuringly, the compounds are selective, with the only off-targets being moderate human CHRM2 and KOR receptors activity associated with ASAP-0011198.

Experiment [2] has as its target CDK6/cyclinD3(h) (Homo sapiens, UniProt Q00534). The settings on record: atp_concentration=200, read-out: % of control remaining.
Source text: as §1

Experiment [3] has as its target T2, DRAK1(h) (Homo sapiens, UniProt Q9UEE5).
T2 construct: gene STK17A
T2 sequence (Q9UEE5 1-414): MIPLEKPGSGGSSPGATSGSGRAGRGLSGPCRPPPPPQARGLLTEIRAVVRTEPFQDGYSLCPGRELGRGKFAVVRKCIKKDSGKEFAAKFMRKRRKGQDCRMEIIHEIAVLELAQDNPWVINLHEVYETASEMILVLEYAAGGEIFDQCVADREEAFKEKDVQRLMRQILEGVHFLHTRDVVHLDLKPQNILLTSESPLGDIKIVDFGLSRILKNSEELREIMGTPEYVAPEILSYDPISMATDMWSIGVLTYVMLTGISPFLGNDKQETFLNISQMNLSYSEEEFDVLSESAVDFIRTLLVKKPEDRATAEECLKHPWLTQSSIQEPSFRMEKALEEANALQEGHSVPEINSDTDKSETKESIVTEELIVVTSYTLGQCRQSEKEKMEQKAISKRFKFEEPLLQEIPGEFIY
The note with it: atp_concentration=10, read-out: % of control remaining.
Source text: as §1

Experiment [4] concerns the target T3, MAPKAP-K2(h) (Homo sapiens, UniProt P49137).
T3 construct: gene MAPKAPK2
The settings on record: atp_concentration=90, read-out: % of control remaining.
Source text: as §1

Experiment [5] deals with T4, PKCα(h) (Homo sapiens, UniProt P17252).
T4 construct: gene PRKCA
The note with it: atp_concentration=45, read-out: % of control remaining.
Source text: as §1

Experiment [6] deals with T5, PKCθ(h) (Homo sapiens, UniProt Q04759).
T5 construct: gene PRKCQ
The note with it: atp_concentration=15, read-out: % of control remaining.
Source text: as §1

Like-named read-outs stand apart in the source and are kept apart here.

T3 sequence (P49137 whole entry): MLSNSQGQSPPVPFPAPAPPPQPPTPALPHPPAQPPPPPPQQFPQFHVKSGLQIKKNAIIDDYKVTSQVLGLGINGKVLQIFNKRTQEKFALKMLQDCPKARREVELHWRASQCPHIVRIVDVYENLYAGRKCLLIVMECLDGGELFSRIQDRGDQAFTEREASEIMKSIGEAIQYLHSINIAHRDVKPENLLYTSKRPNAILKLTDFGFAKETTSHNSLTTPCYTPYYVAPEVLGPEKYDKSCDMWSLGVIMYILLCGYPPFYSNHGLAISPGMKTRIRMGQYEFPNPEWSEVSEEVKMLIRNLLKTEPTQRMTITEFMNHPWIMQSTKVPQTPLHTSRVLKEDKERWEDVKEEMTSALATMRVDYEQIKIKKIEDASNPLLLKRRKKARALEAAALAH
CDK6/cyclinD3(h), sequence (Q00534 whole entry): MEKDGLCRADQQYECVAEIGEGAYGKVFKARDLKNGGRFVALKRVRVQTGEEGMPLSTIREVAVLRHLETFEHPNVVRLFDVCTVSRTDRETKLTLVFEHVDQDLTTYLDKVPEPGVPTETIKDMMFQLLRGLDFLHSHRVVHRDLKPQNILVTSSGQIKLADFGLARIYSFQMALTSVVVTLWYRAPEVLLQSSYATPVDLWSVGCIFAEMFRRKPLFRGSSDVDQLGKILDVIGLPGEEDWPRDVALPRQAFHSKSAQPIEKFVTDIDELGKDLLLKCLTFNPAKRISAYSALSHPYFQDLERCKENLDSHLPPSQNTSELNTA
CDK6/cyclinD3(h), sequence (P30281 whole entry partner): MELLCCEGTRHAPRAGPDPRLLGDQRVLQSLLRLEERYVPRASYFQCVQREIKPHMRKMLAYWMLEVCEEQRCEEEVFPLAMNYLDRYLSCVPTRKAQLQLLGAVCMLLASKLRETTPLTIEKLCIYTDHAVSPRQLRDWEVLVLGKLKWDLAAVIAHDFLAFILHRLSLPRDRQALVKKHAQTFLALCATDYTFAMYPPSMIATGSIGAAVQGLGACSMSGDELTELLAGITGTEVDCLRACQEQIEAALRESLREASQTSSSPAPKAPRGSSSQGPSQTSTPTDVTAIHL
T5 sequence (Q04759 whole entry): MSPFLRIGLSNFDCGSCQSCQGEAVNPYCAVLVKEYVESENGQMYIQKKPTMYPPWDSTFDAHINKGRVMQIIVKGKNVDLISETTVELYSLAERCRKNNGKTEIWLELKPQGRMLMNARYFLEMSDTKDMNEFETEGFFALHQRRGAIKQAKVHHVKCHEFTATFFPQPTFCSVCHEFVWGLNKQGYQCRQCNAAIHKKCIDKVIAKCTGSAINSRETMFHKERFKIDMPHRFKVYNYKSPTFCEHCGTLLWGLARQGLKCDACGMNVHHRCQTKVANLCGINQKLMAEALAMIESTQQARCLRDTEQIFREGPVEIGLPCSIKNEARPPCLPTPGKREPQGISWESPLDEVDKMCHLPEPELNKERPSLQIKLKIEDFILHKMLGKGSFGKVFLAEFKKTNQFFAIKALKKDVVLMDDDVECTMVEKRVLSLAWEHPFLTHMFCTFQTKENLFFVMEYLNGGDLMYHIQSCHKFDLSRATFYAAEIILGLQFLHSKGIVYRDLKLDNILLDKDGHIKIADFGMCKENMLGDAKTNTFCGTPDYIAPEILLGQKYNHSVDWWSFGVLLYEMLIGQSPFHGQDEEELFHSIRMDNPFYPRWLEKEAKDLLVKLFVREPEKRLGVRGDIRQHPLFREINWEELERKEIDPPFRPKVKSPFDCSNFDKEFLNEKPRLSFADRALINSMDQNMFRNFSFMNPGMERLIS

With `CC(C)C(Nc1ncnc2[nH]c(C(=O)NC3CCN(C)C3)cc12)c1ccc2c(c1)S(=O)(=O)CCC2` (stereo not drawn) [ASAP-0011198], the remaining activity at 10 µM in experiment [1] (batch_name=ASAP-0011198-002) amounted to 105%; in experiment [2] (batch_name=ASAP-0011198-002), 99%; in experiment [3] (batch_name=ASAP-0011198-002) it was 105%; in experiment [4] (batch_name=ASAP-0011198-002), 108%; in experiment [5] (batch_name=ASAP-0011198-002) it was 101%; in experiment [6] (batch_name=ASAP-0011198-002), 102%.

With `Cc1nn(C)cc1-c1cc2c(NC(c3ccc4c(c3)S(=O)(=O)CCC4)C(C)C)ncnc2[nH]1` (stereo not drawn) [ASAP-0011446], the remaining activity at 10 µM turned out to be 103% in experiment [1] (batch_name=ASAP-0011446-002); 106% in experiment [2] (batch_name=ASAP-0011446-002); 111% in experiment [3] (batch_name=ASAP-0011446-002); 110% in experiment [4] (batch_name=ASAP-0011446-002); 93% in experiment [5] (batch_name=ASAP-0011446-002); 106% in experiment [6] (batch_name=ASAP-0011446-002).

With `C[C@H](C(=O)O)[C@@H](NC(=O)c1ncnc2[nH]ccc12)c1ccc(Br)cc1` [ASAP-0014722], the remaining activity at 10 µM in experiment [1] (batch_name=ASAP-0014722-002) was 102%; in experiment [2] (batch_name=ASAP-0014722-002), 97%; in experiment [3] (batch_name=ASAP-0014722-002), 98%; in experiment [4] (batch_name=ASAP-0014722-002) it was 98%; in experiment [5] (batch_name=ASAP-0014722-002) it was 108%; in experiment [6] (batch_name=ASAP-0014722-002), 100%.
